Reference: paper PMC7037682, “Herb–Drug Interaction of Red Ginseng Extract and Ginsenoside Rc with Valsartan in Rats” (Molecules, 2020)
Read-outs that look alike come from different tables or passages of the source.

Assays:
[1] = Plasma pharmacokinetics of ginsenosides in rats after 1-week repeated RGE; settings: for detection in rat plasma: LC-MS/MS
Protocol: The rats were randomly divided into the control and RGE groups. The RGE group received a RGE suspension (1.5 g/mL/kg/day, in distilled water) for 7 days via oral gavage. The control group received distilled water for 7 days via oral gavage. After 1 h following the last RGE treatment, valsartan was injected intravenously to both groups via the tail vein at 1 mg/mL/kg (dissolved in DMSO: saline = 2:8, v/v). […] After centrifugation of the blood samples at 16,000× g for 10 min, aliquots (50 μL each) of plasma samples were stored at −80 °C until the analysis of ginsenosides and valsartan.
The residue was reconstituted with 100 μL of 70% methanol consisting of 0.1% formic acid. An aliquot (20 μL) from the sample was injected into the LC-MS/MS system.
After freezing the aqueous layer at −80 °C for 2 h, the upper organic layer was transferred to a clean tube and evaporated to dryness. […] An aliquot (20 μL) from the sample was injected into the LC-MS/MS system. The samples were eluted through an Omega Polar C18 column (2.1 mm × 100 mm, 3 µm particle size) (Phenomenex, Torrance, CA, USA) using a mobile phase consisting of 0.1% formic acid in water: 0.1% formic acid in methanol (15:85, v/v) at a flow rate of 0.2 mL/min.
Pharmacokinetic parameters were calculated from plasma concentration-time profile using non-compartment analysis of WinNonlin (version 5.1; Pharsights, Cary, NC, USA). The statistical significance was assessed by t-test using Statistical Package for the Social Sciences (version 24.0; SPSS Inc., Chicago, IL, USA).

OCT2 = target: T1, OCT2 (Homo sapiens, UniProt O15244); assay: Inhibition of OCT2-mediated [3H]MPP+ uptake in HEK293-OCT2 cells
T1 sequence (O15244 1-555): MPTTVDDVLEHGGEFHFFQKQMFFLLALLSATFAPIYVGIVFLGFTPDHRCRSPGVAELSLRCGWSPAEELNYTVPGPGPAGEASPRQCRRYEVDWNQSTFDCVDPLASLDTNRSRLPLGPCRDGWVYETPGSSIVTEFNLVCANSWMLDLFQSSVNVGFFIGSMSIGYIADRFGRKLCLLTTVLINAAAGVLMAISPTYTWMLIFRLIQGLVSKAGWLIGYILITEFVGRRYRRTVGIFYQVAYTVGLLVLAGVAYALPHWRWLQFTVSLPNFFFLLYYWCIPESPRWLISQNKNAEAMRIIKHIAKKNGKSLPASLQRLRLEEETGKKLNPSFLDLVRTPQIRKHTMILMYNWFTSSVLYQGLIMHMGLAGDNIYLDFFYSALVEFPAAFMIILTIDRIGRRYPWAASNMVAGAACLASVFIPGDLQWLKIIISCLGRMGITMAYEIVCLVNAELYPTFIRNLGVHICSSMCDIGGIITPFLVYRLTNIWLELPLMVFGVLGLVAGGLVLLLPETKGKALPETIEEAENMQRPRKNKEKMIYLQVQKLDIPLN
Protocol: (§1) HEK293 cells overexpressing the OCT1, OCT2, OAT1, OAT3, OATP1B1, and OATP1B3 transporters (HEK293-OCT1, -OCT2, -OAT1, -OAT3, -OATP1B1, and -OATP1B3, respectively) and HEK293-mock cells (Corning Life Sciences; Woburn, MA, USA) were used and characterized as previously described.
(§2) HEK293 cells overexpressing drug transporters and HEK293-mock cells were seeded in poly-D-lysine-coated 96-well plates at a density of 10^5 cells/well and were cultured in DMEM supplemented with 10% FBS, 5 mM non-essential amino acids, and 2 mM sodium butyrate in a humidified atmosphere with 8% CO2 at 37 °C.
(§3) To examine the effects of ginsenosides and typical inhibitors on transporter activity, aliquots (100 μL) of HBSS containing the probe substrate and ginsenosides or typical inhibitors were added to the cells after aspirating pre-incubated HBSS. The concentrations and probe substrates were as follows: 0.1 μM [^3H]MPP^+ for OCT1 and OCT2, 0.1 μM [^3H]PAH for OAT1, 0.1 μM [^3H]ES for OAT3 and OATP1B1, and 0.1 μM [^3H]EG for OATP1B3. […] Then the uptake of probe substrates into HEK293-mock cells and HEK293-OCT1, -OCT2, -OAT1, -OAT3, -OATP1B1, and -OATP1B3 cells in the presence and absence of typical inhibitor or each ginsenoside with previously described concentration range was measured for 5 min. Immediately after placing the plates on ice, the cells were washed three times with 100 μL of ice-cold HBSS, followed by lysing with 50 μL of 10% SDS solution and mixing with 150 μL of Optiphase cocktail solution (Perkin Elmer Inc., Boston, MA, USA). The radioactivity of the probe substrates in the cells was determined using a liquid scintillation counter.
(§4) In the inhibition studies, the uptake rate of substrate by HEK293 cells overexpressing the respective transporters was used as the control (100%) and the uptake rate of substrates in the presence of typical inhibitors or ginsenosides expressed as a percentage of the control. The inhibition data were fitted to an inhibitory effect model using Sigma plot (version 10.0; Systat Software Inc., San Jose, CA, USA). IC50 value indicated the half-maximal inhibitory concentration of the inhibitor.

OATP1B1 = target: T2, OATP1B1 (Homo sapiens, UniProt Q9Y6L6); assay: Inhibition of OATP1B1-mediated [3H]estrone-3-sulfate uptake in HEK293-OATP1B1 cells
T2 sequence (Q9Y6L6 1-691): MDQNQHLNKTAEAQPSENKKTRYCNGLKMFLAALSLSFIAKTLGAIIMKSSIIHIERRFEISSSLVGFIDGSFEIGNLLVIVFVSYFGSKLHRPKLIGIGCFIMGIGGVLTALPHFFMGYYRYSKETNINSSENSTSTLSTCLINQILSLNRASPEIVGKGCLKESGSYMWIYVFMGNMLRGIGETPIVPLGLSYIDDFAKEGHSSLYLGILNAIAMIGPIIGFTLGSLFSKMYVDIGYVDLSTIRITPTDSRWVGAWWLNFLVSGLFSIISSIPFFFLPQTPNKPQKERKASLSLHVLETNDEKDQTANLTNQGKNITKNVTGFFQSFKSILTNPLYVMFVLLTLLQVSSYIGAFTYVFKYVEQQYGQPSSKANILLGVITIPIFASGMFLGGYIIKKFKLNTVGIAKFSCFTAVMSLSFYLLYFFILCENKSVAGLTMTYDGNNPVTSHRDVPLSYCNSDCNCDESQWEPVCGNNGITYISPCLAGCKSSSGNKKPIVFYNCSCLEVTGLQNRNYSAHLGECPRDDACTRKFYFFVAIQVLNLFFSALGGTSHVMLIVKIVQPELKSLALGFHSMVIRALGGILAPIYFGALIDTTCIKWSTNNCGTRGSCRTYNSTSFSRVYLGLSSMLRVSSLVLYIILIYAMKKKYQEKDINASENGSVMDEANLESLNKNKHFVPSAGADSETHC
Protocol: as §1, §2, §3, §4

[2] = after RGE 1.5 g/kg/day po for 1 week
[3] = rat plasma, after RGE 1.5 g/kg/day po for 1 week

Row | SMILES | detection in rat plasma [1, 2] | AUC ([1]; rat plasma, 0 to 48 h, after RGE 1.5 g/kg/day po for 1 week) [ng·h/mL] | Cmax [1, 3] [ng/mL] | MRT [1, 3] [h] | T1/2 [1, 3] [h] | Tmax [1, 3] [h] | maximum plasma concentration (molar) ([1]; rat plasma, after RGE 1.5 g/kg/day po for 7 days) [nM] | IC50 (OCT2; read-out: IC50 OCT2, HEK293-OCT2, 0.1 μM [3H]MPP+ uptake, 5 min) [µM] | IC50 (OATP1B1; read-out: IC50 OATP1B1, HEK293-OATP1B1, 0.1 μM [3H]ES uptake, 5 min) [µM] | IC50 (OCT2) [µM] | IC50 (OATP1B1) [µM] | IC50 OATP1B1 (OATP1B1; HEK293-OATP1B1, 0.1 μM [3H]ES uptake, 5 min)
1 | CC(C)=CCCC(C)(O)[C@H]1CC[C@]2(C)[C@@H]1[C@H](O)C[C@@H]1[C@@]3(C)CC[C@H](O)C(C)(C)[C@@H]3CC[C@]12C (stereo in doubt) [PPD, protopanaxadiol] | detected | 542.01 ± 141.09 | 20.56 ± 9.47 | 21.56 ± 3.31 | 26.95 ± 18.33 | 16.50 ± 12.48 | 48.4 | > 100 | > 100 |  |  | 
2 | CC(C)=CCC[C@](C)(O[C@@H]1O[C@H](CO)[C@@H](O)[C@H](O)[C@H]1O)[C@H]1CC[C@]2(C)[C@@H]1[C@H](O)C[C@@H]1[C@@]3(C)CC[C@H](O)C(C)(C)[C@@H]3[C@@H](O[C@@H]3O[C@H](CO)[C@@H](O)[C@H](O)[C@H]3O)C[C@]12C [Rg1, ginsenoside Rg1] | not detected |  |  |  |  |  |  |  |  | > 100 | > 100 | did not inhibit
